The values that follow come from ChEMBL document CHEMBL5131569, “SAGE-718: A First-in-Class N-Methyl-d-Aspartate Receptor Positive Allosteric Modulator for the Potential Treatment of Cognitive Impairment” (J Med Chem, 2022).

Each structure is given as a SMILES string. Values after ≈ are worked out from the molar mass of the structure shown.

Data set [1] addresses T1, Glutamate NMDA receptor; GRIN1/GRIN2B (Homo sapiens, UniProt Q05586+Q13224). In words: Positive allosteric modulation of recombinant human GluN1/GluN2B receptor stably expressed in HEK293 cells assessed as increase in glycine/L-glutamate-induced channel current at -70 mV holding potential by whole cell patch clamp method relative to control. The data set is classed as cell-based. Conditions: filed as positive allosteric modulator. (In patch-clamp work, channel activity is measured electrically.)

The target of data set [2] is T2, Glutamate NMDA receptor; GRIN1/GRIN2A (Homo sapiens, UniProt Q05586+Q12879). In words: Positive allosteric modulation of recombinant human GluN1/GluN2A receptor stably expressed in HEK293 cells assessed as increase in glycine/L-glutamate-induced channel current at -70 mV holding potential by whole cell patch clamp method relative to control. It counts as cell-based. Conditions: filed as positive allosteric modulator.

The target in data set [3] is T2, Glutamate NMDA receptor; GRIN1/GRIN2A. Kind of data set: Positive allosteric modulation of recombinant human GluN1/GluN2A receptor stably expressed in HEK293 cells assessed as increase in glycine/L-glutamate-induced channel current at -70 mV holding potential by whole cell patch clamp method. It counts as cell-based.
Data set [4] concerns the target T1, Glutamate NMDA receptor; GRIN1/GRIN2B. In words: Positive allosteric modulation of recombinant human GluN1/GluN2B receptor stably expressed in HEK293 cells assessed as increase in glycine/L-glutamate-induced channel current at -70 mV holding potential by whole cell patch clamp method. It counts as cell-based.
Data set [5] in a line: Half life in po dosed rat. It counts as ADME, organism-based. The conditions noted are these: in vivo.
Data set [6] can be described thus: Oral bioavailability in rat. The data set is classed as ADME, organism-based. Conditions: in vivo.
The nature of data set [7]: Clearance in po dosed rat. It counts as ADME, organism-based. Conditions: in vivo.
Data set [8] is described as follows: Clearance in CD-1 mouse by LC-MS/MS analysis. The data set is classed as ADME. Conditions: in vivo.
A short description of data set [9]: Clearance in Sprague-Dawley rat by LC-MS/MS analysis. It counts as ADME. Conditions: in vivo.
The nature of data set [10]: Metabolic stability in dog liver microsomes assessed as intrinsic clearance at 10 uM preincubated for 5 mins followed by NADPH addition and measured upto 65 mins by LC-MS/MS analysis. It counts as ADME, Canis lupus familiaris, Microsome. Conditions: time < 70 min, read-out: CLH. In general terms: Liver microsomes are vesicles of endoplasmic reticulum, rich in cytochrome P450 enzymes.

Data set [11] can be described thus: Metabolic stability in human liver microsomes assessed as intrinsic clearance at 10 uM preincubated for 5 mins followed by NADPH addition and measured upto 65 mins by LC-MS/MS analysis. The data set is classed as ADME, Microsome. Conditions: time < 70 min, read-out: CLH.
A short description of data set [12]: Aqueous solubility of compound in PBS incubated for 1 hr under shaking condition by HPLC-MS/MS analysis. The data set is classed as physicochemical.
Data set [13] is described as follows: Ratio of drug concentration in ip dosed CD-1 mouse brain to plasma after 1 hr by LC-MS/MS analysis. It counts as ADME, organism-based. Conditions: brain and plasma.
Data set [14] in a line: Metabolic stability in mouse liver microsomes assessed as intrinsic clearance at 10 uM preincubated for 5 mins followed by NADPH addition and measured upto 65 mins by LC-MS/MS analysis. It counts as ADME, Microsome. The conditions noted are these: time < 70 min, read-out: CLH.
The nature of data set [15]: Clearance in Beagle dog by LC-MS/MS analysis. It counts as ADME, Canis lupus familiaris. Conditions: in vivo.
A short description of data set [16]: Oral bioavailability in CD-1 mouse by LC-MS/MS analysis. It counts as ADME, organism-based. The conditions noted are these: in vivo.
Data set [17] is described as follows: Oral bioavailability in Beagle dog by LC-MS/MS analysis. Conditions: in vivo. The data set is classed as ADME, organism-based, Canis lupus familiaris.
The nature of data set [18]: Metabolic stability in rat liver microsomes assessed as intrinsic clearance at 10 uM preincubated for 5 mins followed by NADPH addition and measured upto 65 mins by LC-MS/MS analysis. The data set is classed as ADME, Microsome. Conditions: time < 70 min, read-out: CLH.
The nature of data set [19]: Oral bioavailability in Sprague-Dawley rat by LC-MS/MS analysis. The conditions noted are these: in vivo. It counts as ADME, organism-based.
The nature of data set [20]: Lipophilicity, logD of compound in MeOH at 20 uM by HPLC analysis. The data set is classed as physicochemical.

For the compound `COCC[C@@](C)(O)CC[C@@H](C)[C@H]1CC[C@H]2[C@@H]3CC=C4C[C@@](C)(O)CC[C@]4(C)[C@H]3CC[C@]12C`, the values for the Emax in [1] and in data set [2] were 130% and 87%, respectively. Moreover, the EC50 was found to be 220 nM in [3] and 590 nM in data set [4].

`C[C@H](CC[C@](C)(O)C(F)(F)F)[C@H]1CC[C@H]2[C@@H]3CC[C@H]4C[C@@](C)(O)CC[C@]4(C)[C@H]3CC[C@]12C`: the Emax stood at 100% in data set [1] and 150% in data set [2]. In addition, the EC50 in data set [3] amounted to 180 nM; in data set [4], 110 nM.

Consider `CC(C)[C@@H](O)CC[C@@H](C)[C@H]1CC[C@H]2[C@@H]3CC=C4C[C@@H](O)CC[C@]4(C)[C@H]3CC[C@]12C`, for which the half-life in data set [5] is less than 0.6 h. Moreover, the bioavailability in data set [6] is less than 10%. The compound also gave a CL/F in data set [7] of 91.7 mL/min/kg.

Regarding `CC[C@@](C)(O)CC[C@@H](C)[C@H]1CC[C@H]2[C@@H]3CC=C4C[C@@](C)(O)CC[C@]4(C)[C@H]3CC[C@]12C`, the Emax was determined as 190% in data set [1] and 280% in [2]. The EC50 was found to be 150 nM in [3] and 300 nM in data set [4].

As to `C#C[C@](C)(O)CC[C@@H](C)[C@H]1CC[C@H]2[C@@H]3CC=C4C[C@@](C)(O)CC[C@]4(C)[C@H]3CC[C@]12C`, the EC50 in [3] and in data set [4] was more than 10000 nM each time.

`C[C@H](CC[C@@](C)(O)C1CC1)[C@H]1CC[C@H]2[C@@H]3CC=C4C[C@@](C)(O)CC[C@]4(C)[C@H]3CC[C@]12C`: the Emax was found to be 140% in data set [1] and 180% in data set [2]. For the same compound, the EC50 in [3] was 74 nM; in data set [4], 49 nM.

Regarding `C[C@H](CC[C@@](C)(O)CCO)[C@H]1CC[C@H]2[C@@H]3CC=C4C[C@@](C)(O)CC[C@]4(C)[C@H]3CC[C@]12C`, the EC50 in data set [3] and in data set [4] was more than 10000 nM throughout.

Consider `CCCC[C@](C)(O)CC[C@@H](C)[C@H]1CC[C@H]2[C@@H]3CC=C4C[C@@](C)(O)CC[C@]4(C)[C@H]3CC[C@]12C`, for which the Emax in data set [1] and in data set [2] was 170% each time. Moreover, the EC50 in [3] worked out at 100 nM; in [4], 450 nM.

Turning to `C[C@H](CC[C@](C)(O)C(F)(F)F)[C@H]1CC[C@H]2[C@@H]3CC=C4C[C@](C)(O)CC[C@]4(C)[C@H]3CC[C@]12C`, the EC50 was 2200 nM in data set [3] and 1500 nM in [4].

As to `C[C@H](CC[C@](C)(O)C(F)(F)F)[C@H]1CC[C@H]2[C@@H]3CC[C@@H]4C[C@@](C)(O)CC[C@]4(C)[C@H]3CC[C@]12C`, the EC50 in [3] and in [4] was more than 10000 nM throughout.

Consider `C[C@H](CC[C@](C)(O)C1CC1)[C@H]1CC[C@H]2[C@@H]3CC=C4C[C@@](C)(O)CC[C@]4(C)[C@H]3CC[C@]12C`, for which the Emax in data set [1] and in data set [2] was 130% in each case. Further, the EC50 is 420 nM in data set [3] and 60 nM in [4].

Consider `C[C@H](CCC(C)(C)O)[C@H]1CC[C@H]2[C@@H]3CC=C4C[C@@](C)(O)CC[C@]4(C)[C@H]3CC[C@]12C`, for which the clearance is 18.3 mL/min/kg in data set [8], 30 mL/min/kg in data set [9] and 3.33 mL/min/kg in data set [15]. In data set [5], this compound gave a half-life of 1.7 h. Besides, the microsomal CLint at 10 µM in data set [10] worked out at 16 µL/min/mg; in [11], 13 µL/min/mg; in [14] it was 42 µL/min/mg; in data set [18], 35 µL/min/mg. For the same compound, the solubility at 1 h in data set [12] was 0.62 µM (≈ 0.25 µg/mL). Further, the Kp at 1 h in data set [13] stood at 0.6. The CL/F in data set [7] was 18.3 mL/min/kg. In addition, the results for the bioavailability in data set [16], in data set [17] and in data set [19] were 53%, 17% and 23%, respectively. The logD at 20 µM in data set [20] came to 5.

With `C[C@H](CC[C@](C)(O)CCO)[C@H]1CC[C@H]2[C@@H]3CC=C4C[C@@](C)(O)CC[C@]4(C)[C@H]3CC[C@]12C`, the EC50 in data set [3] and in data set [4] was more than 10000 nM throughout.

As for `C#C[C@@](C)(O)CC[C@@H](C)[C@H]1CC[C@H]2[C@@H]3CC=C4C[C@@](C)(O)CC[C@]4(C)[C@H]3CC[C@]12C`, the Emax in data set [1] was 56%. The concentration giving a half-maximal response (EC50) in data set [3] is more than 10000 nM; in [4] it was 1100 nM.

In [9], `CC[C@](C)(O)CC[C@@H](C)[C@H]1CC[C@H]2[C@@H]3CC=C4C[C@@](C)(O)CC[C@]4(C)[C@H]3CC[C@]12C` gave a clearance of 36.7 mL/min/kg. For the same compound, the values for the Emax in data set [1] and in data set [2] were 120% and 170%, respectively. For the same compound, the microsomal CLint at 10 µM stood at 0.14 µL/min/mg in data set [11], 8.4 µL/min/mg in data set [14] and 2.7 µL/min/mg in data set [18]. The Kp at 1 h in data set [13] was found to be 0.2. The EC50 was 55 nM in [3] and 100 nM in data set [4]. For the same compound, the bioavailability in [19] turned out to be 89%. This compound came in with a logD at 20 µM in data set [20] of 6.5.

`C[C@H](CC[C@@](C)(O)C(F)(F)F)[C@H]1CC[C@H]2[C@@H]3CC=C4C[C@@](C)(O)CC[C@]4(C)[C@H]3CC[C@]12C`: the EC50 came to 310 nM in data set [3] and 180 nM in data set [4].

Take `CC(C)[C@](C)(O)CC[C@@H](C)[C@H]1CC[C@H]2[C@@H]3CC=C4C[C@@](C)(O)CC[C@]4(C)[C@H]3CC[C@]12C`: the figures for the Emax in data set [1] and in data set [2] were 150% and 170%, respectively. The EC50 in data set [3] turned out to be 120 nM; in data set [4] it was 81 nM.

`CCCC[C@@](C)(O)CC[C@@H](C)[C@H]1CC[C@H]2[C@@H]3CC=C4C[C@@](C)(O)CC[C@]4(C)[C@H]3CC[C@]12C`: the figures for the maximal effect (Emax) in data set [1] and in [2] were 170% and 190%, respectively. Besides, the EC50 amounted to 160 nM in data set [3] and 190 nM in data set [4].

For the compound `CC(C)[C@@](C)(O)CC[C@@H](C)[C@H]1CC[C@H]2[C@@H]3CC=C4C[C@@](C)(O)CC[C@]4(C)[C@H]3CC[C@]12C`, in data set [9], the clearance was 31.7 mL/min/kg. In addition, the Emax turned out to be 220% in data set [1] and 260% in [2]. Also, the figures for the microsomal CLint at 10 µM in [11] and in data set [14] were 6.8 µL/min/mg and 31 µL/min/mg, respectively. For the same compound, in [13], the Kp at 1 h worked out at 0.2. Besides, the EC50 in data set [3] worked out at 60 nM; in data set [4] it was 23 nM. For the same compound, the bioavailability in data set [19] stood at 116%. The logD at 20 µM in [20] amounted to 6.7.

Turning to `C[C@H](CC[C@@H](O)C(F)(F)F)[C@H]1CC[C@H]2[C@@H]3CC=C4C[C@@](C)(O)CC[C@]4(C)[C@H]3CC[C@]12C`, the half-life in data set [5] is 5.75 h. Further, the bioavailability in data set [6] turned out to be 18%. The compound further had a CL/F in data set [7] of 33.3 mL/min/kg.

As to `C[C@H](CC[C@](C)(O)C(F)(F)F)[C@H]1CC[C@H]2[C@@H]3CC=C4C[C@@](C)(O)CC[C@@H]4[C@H]3CC[C@]12C`, the Emax came to 52% in [1] and 50% in [2]. The results for the EC50 in data set [3] and in [4] were 93 nM and 250 nM, respectively.

As usually defined, the Emax is the greatest response seen or fitted, relative to the assay's reference. As usually defined, the EC50 is the concentration needed to bring the measured effect to its halfway point. By half-life is commonly meant the time in which the quantity being followed falls by half. Broadly, the CL/F is clearance divided by bioavailability, as obtained after extravascular dosing. Usually clearance stands for a measure of how efficiently the substance is removed, as volume per time. A higher clearance goes with efficient removal. In general, solubility refers to the concentration that dissolves in the medium under given conditions. Read a low solubility as little dissolved substance. By Kp is commonly meant the ratio of the level in a tissue or fluid to that in plasma or blood. The logD is the decadic logarithm of the distribution of all forms, ionised or not, between an organic phase and buffer at a given pH. Low values mean lower lipophilicity, high ones higher lipophilicity.
